Source: ChEMBL document CHEMBL1201862, “PubChem BioAssay data set” (2004)
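Method: 48-hour compound exposure of cells in 96-well plates, five concentrations, linear interpolation of endpoints. Here, GI50 denotes the concentration required for 50% inhibition of growth.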 The source made the active and inactive calls. Cut-off read from the data, not from the text of the source: active = GI50 up to about 1.1 µM and inactive = higher.

Tests used:
Assay in all cases: NCI tumour cell line growth inhibition, 48 h
HOP-18 = tested on: HOP-18
KM-20L2 = tested on: KM-20L2
LXFL 529 = tested on: LXFL 529
XF498 = tested on: XF498
DMS-273 = tested on: DMS-273
DMS-114 = tested on: DMS-114
SNB-78 = tested on: SNB-78
DLD-1 = tested on: DLD-1
RXF 631 = tested on: RXF 631

Row | SMILES | GI50 (HOP-18) | GI50 (KM-20L2) | GI50 (LXFL 529) | GI50 (XF498) | GI50 (DMS-273) | GI50 (DMS-114) | GI50 (SNB-78) | GI50 (DLD-1) | GI50 (RXF 631)
1 | N=C(N)NS(=O)(=O)c1ccc(NC(=O)c2cccc3c(O)c4ccccc4nc23)cc1 | > 86.5 µM (inactive) | > 100 µM (inactive) | > 100 µM (inactive) | > 100 µM (inactive) | > 100 µM (inactive) | > 100 µM (inactive) | 42.1 µM (inactive) | > 100 µM (inactive) | –
2 | CCOC(=O)Cn1c2ccccc2c(=O)c2cc(C)c(C)c(C#N)c21 | > 100 µM (inactive) | > 100 µM (inactive) | > 100 µM (inactive) | 30.2 µM (inactive) | > 100 µM (inactive) | – | > 100 µM (inactive) | > 100 µM (inactive) | > 100 µM (inactive)
3 | Nc1c2ccccc2nc2nccnc12 | > 100 µM (inactive) | > 100 µM (inactive) | – | > 100 µM (inactive) | > 100 µM (inactive) | > 100 µM (inactive) | > 100 µM (inactive) | > 100 µM (inactive) | –
4 | CC(=O)OCC1OC(n2c(=O)n(-c3ccccc3)c(=O)c3cc(Br)cc(Br)c32)C(OC(C)=O)C(OC(C)=O)C1OC(C)=O (stereo not drawn) | > 100 µM (inactive) | 8.95 µM (inactive) | > 100 µM (inactive) | > 100 µM (inactive) | > 100 µM (inactive) | > 100 µM (inactive) | > 100 µM (inactive) | > 100 µM (inactive) | > 100 µM (inactive)
5 | Clc1cc(Cl)c2c(Cl)cc(Cl)c3c2c1N=S=N3 | > 100 µM (inactive) | > 100 µM (inactive) | > 100 µM (inactive) | 12.9 µM (inactive) | > 100 µM (inactive) | > 100 µM (inactive) | > 100 µM (inactive) | 83.8 µM (inactive) | –
6 | Cc1cc(C)c2c(c1)N[S@@](=O)S2 | 23.6 µM (inactive) | 51.3 µM (inactive) | 13.2 µM (inactive) | 22.6 µM (inactive) | 17.2 µM (inactive) | 18.7 µM (inactive) | 26.1 µM (inactive) | 26.9 µM (inactive) | –
7 | O=C(Nc1ccccc1Cl)c1ccc([N+](=O)[O-])cc1 | – | > 100 µM (inactive) | – | > 100 µM (inactive) | > 100 µM (inactive) | – | 39.7 µM (inactive) | > 100 µM (inactive) | –
8 | Cc1cc2c(cc1C)[n+]([O-])c(C(=O)C/C(=N/NC(=O)c1ccccc1O)C(=O)Nc1ccccc1C(C)C)c(C)[n+]2[O-] | 89.5 µM (inactive) | > 100 µM (inactive) | 63 µM (inactive) | – | 99.5 µM (inactive) | 98.6 µM (inactive) | > 100 µM (inactive) | 53.7 µM (inactive) | > 100 µM (inactive)
9 | Cc1ccccc1C1OC(=O)c2ccc3ccccc3c21 (stereo not drawn) | 7.64 µM (inactive) | 4.16 µM (inactive) | 3.38 µM (inactive) | 2.31 µM (inactive) | 3.5 µM (inactive) | 4.67 µM (inactive) | 6.5 µM (inactive) | 3.37 µM (inactive) | 0.607 µM (active)
10 | COc1ccc(-c2oc3cc(O)c(OC)c(O)c3c(=O)c2OC2OC(CO)C(O)C(O)C2O)cc1 (stereo not drawn) | 50.4 µM (inactive) | > 100 µM (inactive) | > 100 µM (inactive) | – | > 100 µM (inactive) | > 100 µM (inactive) | > 100 µM (inactive) | > 100 µM (inactive) | –
11 | CSc1ccc(N2C(=O)C3c4[nH]c5ccccc5c4C4CCC(C(C)(C)C)CC4C3C2=O)cc1 (stereo not drawn) | 22.8 µM (inactive) | 48.4 µM (inactive) | 18.5 µM (inactive) | 27.7 µM (inactive) | 10.6 µM (inactive) | 15.2 µM (inactive) | 7.94 µM (inactive) | 52.4 µM (inactive) | –
12 | CC1=C(C)CC2(CCCCC2=O)[S+]([O-])C1 (stereo not drawn) | > 100 µM (inactive) | > 100 µM (inactive) | > 100 µM (inactive) | > 100 µM (inactive) | > 100 µM (inactive) | > 100 µM (inactive) | > 100 µM (inactive) | > 100 µM (inactive) | –
13 | C[Si](C)(C)/C(Br)=C\CCN1C(=O)CCC1O (stereo not drawn) | > 100 µM (inactive) | > 100 µM (inactive) | > 100 µM (inactive) | > 100 µM (inactive) | > 100 µM (inactive) | > 100 µM (inactive) | > 100 µM (inactive) | – | –
14 | C/C(CC(=O)Nc1ccc(NC(=O)/C(C)=N/NS(=O)(=O)c2ccc(C)cc2)cc1)=N\NS(=O)(=O)c1ccc(C)cc1 | – | > 100 µM (inactive) | > 100 µM (inactive) | – | – | > 100 µM (inactive) | > 100 µM (inactive) | > 100 µM (inactive) | –
15 | C[C@H]1CC[P+](C)(c2ccccc2)C1 (stereo partly drawn) | > 100 µM (inactive) | > 100 µM (inactive) | > 100 µM (inactive) | < 0.01 µM (active) | > 100 µM (inactive) | > 100 µM (inactive) | > 100 µM (inactive) | > 100 µM (inactive) | –
16 | Brc1cc2c(cc1Br)CN(c1ccccc1)C2 | – | > 100 µM (inactive) | > 100 µM (inactive) | > 100 µM (inactive) | > 100 µM (inactive) | > 100 µM (inactive) | > 100 µM (inactive) | 68.2 µM (inactive) | –
17 | CCc1cc2c(O)c(c1)Cc1cc(CC)cc(c1O)Cc1cc(CC)cc(c1O)Cc1cc(CC)cc(c1O)Cc1cc(CC)cc(c1O)Cc1cc(CC)cc(c1O)Cc1cc(CC)cc(c1O)C2 | – | > 100 µM (inactive) | > 100 µM (inactive) | 48.2 µM (inactive) | > 100 µM (inactive) | > 100 µM (inactive) | 55 µM (inactive) | > 100 µM (inactive) | –
18 | NC(CNc1ccc(O)cc1)C(=O)O (stereo not drawn) | > 100 µM (inactive) | 63 µM (inactive) | > 100 µM (inactive) | 13.5 µM (inactive) | > 100 µM (inactive) | > 100 µM (inactive) | > 100 µM (inactive) | > 100 µM (inactive) | 92.3 µM (inactive)
19 | COC(=O)Cc1nc2ccccc2o1 | > 100 µM (inactive) | 20.5 µM (inactive) | 49.3 µM (inactive) | 59 µM (inactive) | 36.4 µM (inactive) | 36.1 µM (inactive) | > 100 µM (inactive) | 45.1 µM (inactive) | > 100 µM (inactive)
20 | N=C(N)NS(=O)(=O)c1ccc(NC(=O)c2cccc3c(Nc4ccc(S(N)(=O)=O)cc4)c4ccccc4nc23)cc1 | > 100 µM (inactive) | > 100 µM (inactive) | > 100 µM (inactive) | > 100 µM (inactive) | > 100 µM (inactive) | > 100 µM (inactive) | > 100 µM (inactive) | > 100 µM (inactive) | –
21 | CCCCCCCC(=O)OCC(C[As](=O)(O)O)OC(=O)CCCCCCC (stereo not drawn) | 15.8 µM (inactive) | 16.7 µM (inactive) | 13.4 µM (inactive) | – | 14.1 µM (inactive) | 16.4 µM (inactive) | 18.7 µM (inactive) | 16.9 µM (inactive) | –
22 | Cc1ccc(Nc2cccc3c2C(=O)c2cccc(Nc4ccc(C)cc4S(=O)(=O)O)c2C3=O)c(S(=O)(=O)O)c1 | > 100 µM (inactive) | > 100 µM (inactive) | > 100 µM (inactive) | – | > 100 µM (inactive) | > 100 µM (inactive) | > 100 µM (inactive) | > 100 µM (inactive) | > 100 µM (inactive)
23 | Brc1ccc2c(C3CN[C@@H](c4c[nH]c5cc(Br)ccc45)CN3)c[nH]c2c1 (stereo partly drawn) | 11.9 µM (inactive) | 1.98 µM (inactive) | 2.13 µM (inactive) | 6.84 µM (inactive) | 2.26 µM (inactive) | 1.95 µM (inactive) | 10.4 µM (inactive) | 3.03 µM (inactive) | 2.67 µM (inactive)
24 | c1ccc(C2OC3(CCC[C@H]4C[C@H]43)O[C@H]2c2ccccc2)cc1 (stereo partly drawn) | – | 30.8 µM (inactive) | – | 22.7 µM (inactive) | 49.4 µM (inactive) | 33.7 µM (inactive) | 58.9 µM (inactive) | 78.9 µM (inactive) | 89.3 µM (inactive)
25 | CC1C=CC(O)[C@]2(CO)CC3(CCC12)OCCO3 (stereo partly drawn) | – | > 100 µM (inactive) | > 100 µM (inactive) | > 100 µM (inactive) | > 100 µM (inactive) | > 100 µM (inactive) | > 100 µM (inactive) | > 100 µM (inactive) | > 100 µM (inactive)
26 | O=C(CC(=O)c1ccccc1)c1ccccc1.O=C(CC(=O)c1ccccc1)c1ccccc1.O=C(CC(=O)c1ccccc1)c1ccccc1.[SiH4] | 6.71 µM (inactive) | 4.18 µM (inactive) | 3.39 µM (inactive) | 3.87 µM (inactive) | – | 2.3 µM (inactive) | – | 3.7 µM (inactive) | –
